Measurements published in US20190175534A1, “PHARMACEUTICAL COMPOSITIONS COMPRISING DGLA AND USE OF SAME” (DS Biopharma Limited, priority 2016, published 2019).
Blank lines part the entries; values can stand above or below the compound they belong to.

Columns and labels:
[1] = system: spontaneous hypertensive rats; assay: Arterial pressure in spontaneous hypertensive rats after seven days of gavage, with intravenous phenylephrine challenge; format: in vivo, rat
[2] = design: species or system human; conditions: in vivo, po
Method: A single-center, double-blind, randomized, placebo-controlled, two part Phase one study was performed in healthy male and female subjects aged 18 to 45 years inclusive. The primary objective of this study was to assess the safety and plasma pharmacokinetics (PK) of orally administered single doses and orally administered multiple doses of DS107G capsules (once daily for 28 days) in healthy subjects.
Subjects were randomly assigned in a 3:1 ratio of DG107G to placebo by block randomization. Single dose part one of the study comprised three cohorts of eight subjects each, with the addition of Cohort four based on evaluation of the safety data of Cohort three by the Safety Monitoring Committee (SMC). A single oral dose of DS107G or matching placebo was administered to fasted subjects in Cohorts one to three (500, 1000, and 2000 mg, respectively) in parallel; subjects in Cohort four were administered a dose of 4000 mg following completion of Cohort three. Subjects in Cohort two received 1000 mg or matching placebo in the fed state at ≥14 days after the first dose.
Safety assessments were monitored throughout the study.
In Part one of the study, subjects in Cohorts one to three were administered a single dose of study drug (either 500-, 1000-, or 2000-mg as 500-mg DS107G capsules or matching placebo capsules) in parallel on study Day 1 after at least an 8-hour fast, according to Table 20. Cohort 4 was initiated following the review of safety data from Cohort 3 by the SMC.

Compound: CC(=O)Oc1ccccc1C(=O)O [Aspirin, aspirin]
Mean arterial pressure, Average SAP ([1]; Aspirin gavage 7 days, phenylephrine 20 μg/kg iv): 174.3

Free 15-HETrE plasma concentration [2]: < 100 ng/mL
Compound: CCCCC[C@H](O)/C=C/C=C\C/C=C\CCCCCCC(=O)O [Batch 15-HETrE, 15-Hydroxyeicosatrienoic acid]

Compound: COc1ccccc1OCCNCC(O)COc1cccc2[nH]c3ccccc3c12 (stereo not drawn) [Carvedilol, carvedilol]
Effect on mean systemic arterial pressure when added after phenylephrine ([1]; 0.1 mg/kg i.v., aspirin-fed rats): significant decrease
